In one assay the test system is mtDNA (120 bp). Nature of the assay: mtDNA-peptide binding (pull-down) assay. The conditions noted are these: biotinylated peptide, Streptavidin Dynabeads. Set-up: species or system mouse. The text has this:
C-terminal biotinylated peptides corresponding to amino acid residues from 1 to 26 of mouse VDAC1 (SEQ ID NO:1) and a mutant peptide (SEQ ID NO:72) with acetylation (N-terminus) and amidation (C-terminus) were synthesized and purified by Genscript (Piscataway, N.J., USA). Mitochondrial DNA was amplified using PCR with mtDNA specific primer of the D-loop region. The primers used were as follow (5′-3′): mtDNA 120 bp forward (SEQ ID NO:73), and reverse (SEQ ID NO:74). Purified mtDNA (120 bp) was incubated rotating end-over-end with peptides and Streptavidin Dynabeads (Invitrogen) for 18 h at 4° C. The peptides were captured by the Streptavidin Dynabeads, and unbound peptides and free mtDNA were removed by extensive washing with PBS. The samples were treated with proteinase K for 30 min at 60° C., and the mtDNA in the supernatant was purified with QIAquick Nucleotide Removal Kit (Qiagen). The purified mtDNA was quantified using real-time RT-PCR with the D-loop3 primers.

Assay [1] deals with EndoG−/− MEFs. Nature of the assay: ISG expression in EndoG−/− MEFs (real-time PCR / western blot). It counts as cell-based, mouse. In general terms: In qPCR the cycle at which signal appears reflects the starting amount.
Description: Total RNA was extracted using RNeasy Plus Mini Kit (Qiagen) according to the manufacturer's instructions. The first-strand cDNA was synthesized from 2 μg purified mRNA using Accupower RT PreMix (BioNeer). The reaction mixtures were incubated at 42° C. for 60 min and 94° C. for 5 min. Real-time RT-PCR was performed using the LightCycler 96 system (Roche Life Science) with SYBR Green master mix (Roche). The primers used were as follow (5′-3′): EndoG forward (SEQ ID NO:36), and reverse (SEQ ID NO:37); Cxcl10 forward (SEQ ID NO:38), and reverse (SEQ ID NO:39); GAPDH forward (SEQ ID NO:40), and reverse (SEQ ID NO:41); Ifi44 forward (SEQ ID NO:42), and reverse (SEQ ID NO:43); Ifit1 forward (SEQ ID NO:44), and reverse (SEQ ID NO:45); Ifit3 forward (SEQ ID NO:46), and reverse (SEQ ID NO:47); IFNα4 forward (SEQ ID NO:48), and reverse (SEQ ID NO:49); IFNβ forward (SEQ ID NO:50), and reverse (SEQ ID NO:51); Iigp1 forward (SEQ ID NO:52), and reverse (SEQ ID NO:53); ISG15 forward (SEQ ID NO:54), and reverse (SEQ ID NO:55); Oasl2 forward (SEQ ID NO:56), and reverse (SEQ ID NO:57); Rsad2 forward (SEQ ID NO:58), and reverse (SEQ ID NO:59); USP18 forward (SEQ ID NO:60), and reverse (SEQ ID NO:61); VDAC1 forward (SEQ ID NO:62), and reverse (SEQ ID NO:63). GAPDH was used as an internal standard of mRNA expression, and the ratio of the target gene expression to GAPDH expression was calculated using LightCycler 96 Instrument software (Roche). The quality of real-time RT-PCR results was evaluated based on the melting temperature (Tm) of a DNA fragment and melting curve analysis.
The next assay deals with TFAM^KD MEFs. Nature of the assay: ISG expression in TFAM KD MEFs. It counts as cell-based, mouse. As to the method: The following mouse embryonic fibroblasts (MEFs) were used: VDAC1/3^−/− (MEFs) and Bak/Bax^−/− MEFs with the respective WT counterparts; WT and cGAS^−/− MEFs; WT and IRF3/IRF7^−/− MEFs; and WT and MICU1^−/− MEFs. All MEFs were grown in complete Dulbecco's modified Eagle's medium (DMEM, Corning) supplemented with 10% fetal bovine serum (FBS, Sigma-Aldrich) and 1% penicillin and streptomycin (antibiotics, Gibco) at 37° C. with 5% CO2. LMTK-1 cells were grown in complete RPMI 1640 medium (Gibco) supplemented with 10% FBS and antibiotics. The LMTK^−-derived cell line lacking mtDNA (ρ^o), LMEB-4, was grown in LMTK-1 growth medium supplemented with uridine (50 μg/ml, Sigma-Aldrich) and sodium pyruvate (1 mM, Gibco). WT (ρ^o) and EndoG^−/− (ρ^o) MEFs were generated by incubation with ethidium bromide (Invitrogen) in complete DMEM supplemented with 15% FBS, antibiotics, uridine (50 μg/ml), and pyruvate (1 mM) for 5 months. […]
Total RNA was extracted using RNeasy Plus Mini Kit (Qiagen) according to the manufacturer's instructions. […] GAPDH was used as an internal standard of mRNA expression, and the ratio of the target gene expression to GAPDH expression was calculated using LightCycler 96 Instrument software (Roche). The quality of real-time RT-PCR results was evaluated based on the melting temperature (Tm) of a DNA fragment and melting curve analysis. […]

A further assay has as its system VDAC1/3−/− MEFs. The experiment in a line: ISG expression in VDAC1/3−/− MEFs. Conditions: treatment with Ca2+ chelator BAPTA. The assay is classed as cell-based, mouse. As to the method: (§1) The following mouse embryonic fibroblasts (MEFs) were used: VDAC1/3^−/− (MEFs) and Bak/Bax^−/− MEFs with the respective WT counterparts; WT and cGAS^−/− MEFs; WT and IRF3/IRF7^−/− MEFs; and WT and MICU1^−/− MEFs. All MEFs were grown in complete Dulbecco's modified Eagle's medium (DMEM, Corning) supplemented with 10% fetal bovine serum (FBS, Sigma-Aldrich) and 1% penicillin and streptomycin (antibiotics, Gibco) at 37° C. with 5% CO2. LMTK-1 cells were grown in complete RPMI 1640 medium (Gibco) supplemented with 10% FBS and antibiotics. The LMTK^−-derived cell line lacking mtDNA (ρ^o), LMEB-4, was grown in LMTK-1 growth medium supplemented with uridine (50 μg/ml, Sigma-Aldrich) and sodium pyruvate (1 mM, Gibco). WT (ρ^o) and EndoG^−/− (ρ^o) MEFs were generated by incubation with ethidium bromide (Invitrogen) in complete DMEM supplemented with 15% FBS, antibiotics, uridine (50 μg/ml), and pyruvate (1 mM) for 5 months.
(§2) Total RNA was extracted using RNeasy Plus Mini Kit (Qiagen) according to the manufacturer's instructions. […] GAPDH was used as an internal standard of mRNA expression, and the ratio of the target gene expression to GAPDH expression was calculated using LightCycler 96 Instrument software (Roche). The quality of real-time RT-PCR results was evaluated based on the melting temperature (Tm) of a DNA fragment and melting curve analysis.

In another assay the test system is MICU1−/− MEFs. The experiment in a line: ISG induction in MICU1−/− MEFs. It counts as cell-based, mouse. Conditions: treatment with DIDS. As for the experimental part:
as §1, §2

A further assay has as its system LMTK-1 (WT) cells. Nature of the assay: Ifi44 expression in LMTK-1 (WT) cells. The conditions noted are these: 100 μM DIDS. The assay is classed as cell-based. As to the method:
as §1, §2

A further assay deals with LMEB-4 (ρ0) cells. The experiment in a line: Ifi44 expression in LMEB-4 (ρ0) cells lacking mtDNA. The conditions noted are these: 100 μM DIDS. It counts as cell-based. As to the method:
as §1, §2

Assay [2] relates to mitochondria from MICU1−/− MEFs. Nature of the assay: mtDNA release from isolated mitochondria of MICU1−/− MEFs. Also noted: species or system mouse. Conditions: buffer lacking Ca2+, with or without DIDS. As to the method: Therefore, it was postulated that VDAC may be increasing mtDNA release in living cells merely by increasing mitochondrial Ca^2+ and promoting PTP formation. To examine this possibility, mitochondria from MICU1^−/− MEFs, which already have elevated Ca^2+ and ROS levels (FIG. 6F), were isolated and incubated in a buffer lacking Ca^2+ either with or without DIDS.

The subject of another assay is 143B cells. Nature of the assay: Quantification of fimtDNA (free intra-mtDNA fragments). The assay is classed as cell-based. As to the method:
For the quantification of fimtDNA release, 143B cells were resuspended in mitochondrial isolation buffer and subsequently homogenized 30 times with pestle B (small clearance). The homogenized samples were centrifuged at 1,000 g for 10 min at 4° C. The supernatant was transferred to a new tube and centrifuged at 1,000 g for 5 min at 4° C., and the mitochondrial pellet was collected after the centrifugation of the final supernatant at 11,500 g for 10 min at 4° C. Isolated mitochondria were resuspended in 50 μl CSK buffer containing 10 mM PIPES pH 6.8, 300 mM sucrose, 100 mM NaCl, 3 mM MgCl2, 1 mM EGTA, and 0.05% Triton X-100, for 5 min on ice, and the supernatant (fimtDNA) and CSK-pellet fractions were collected after centrifugation at 17,000 g for 30 min at 4° C. A 1:20 dilution of CSK-sup was used for real-time PCR with fimtDNA primers in each reaction. The primers used were as follow (5′-3′): hfimtNDA forward (SEQ ID NO:70), and reverse (SEQ ID NO:71). CSK-pellet was resuspended in 100 μl lysis buffer containing 20 mM EDTA and proteinase K and incubated at 56° C. overnight. The digested pellet was diluted with water (1:20 to 1:100) and heated at 95° C. for 20 min to inactivate proteinase K, and the CSK-pellet fraction was used for real-time PCR in each reaction. The fimtDNA in CSK-sup was normalized to the mtDNA in CSK-pellet.

Assay [3] has as its system EndoG−/− MEFs. The experiment in a line: ROS levels in EndoG−/− MEFs. The assay is classed as cell-based, mouse. Conditions: Mito-TEMPO (10 μM), 3 days. As to the method:
Cellular cGAMP levels were measured by LC/MS (Agilent Technologies) using 5% perchloric acid extracts of WT and EndoG^−/− MEFs. Intracellular ROS production in MEFs was measured using the oxidative stress indicator CM-H2DCFDA (Invitrogen) with flow cytometry (FACS). Mitochondrial ROS in MEFs was evaluated using the mitochondrial superoxide indicator MitoSOX (Invitrogen) with a confocal microscope (LSM880, Zeiss, and the fluorescence intensity was measured using Zen software (Zeiss). To quantify mitochondrial ROS in human PBMCs, the cells were obtained from heparinized blood using a Ficoll-Paque gradient. The cells were washed with PBS, resuspended in RPMI 1640 medium, and transferred to 96-well plates. Subsequently, the cells were stimulated with calcium ionophore A23187 (25 μM), VBIT-4 (5 μM), and MitoSOX (2 μM) (Life Technologies). After 1 h at 37° C., the fluorescence was measured at 510/595 nm using a microplate reader (Synergy HTX; BIOTEK). Cells without dye were used as the blank control.

Setting [4] is: treatment with Ca2+ chelator BAPTA.
The mark [5] stands for this setting: DIDS (100 μM), real-time PCR and western blot.

No end group written: not given here.

As for “26 amino acid VDAC1 N-terminal peptide: C-terminal biotinylated peptide corresponding to amino acid residues 1 to 26 of mouse VDAC1 (MAVPPTYADLGKSARDVFTKGYGFGL-biotin)”, the “pull-down of mtDNA fragment” value in the assay on mtDNA (120 bp) was “pulled-down the mtDNA fragment in dose-dependent manner”.
For `O=C(O)CN(CC(=O)O)c1ccccc1OCCOc1ccccc1N(CC(=O)O)CC(=O)O` [BAPTA], the ISG expression result with EndoG−/− MEFs [1] (setting [4]) is recorded as “decreased”; with TFAM^KD MEFs (setting [4]) it was “decreased”; in the assay on VDAC1/3−/− MEFs, “not”.
With `O=S(=O)(O)c1cc(N=C=S)ccc1C=Cc1ccc(N=C=S)cc1S(=O)(=O)O` [DIDS, 4,4′-Diisothiocyanatostilbene-2,2′-disulfonate], the ISG expression entry in the assay on EndoG−/− MEFs [1] (setting [5]) and in the assay on TFAM^KD MEFs (setting [5]) was “inhibited” throughout. Also, the ISG induction result in the assay on MICU1−/− MEFs was “abrogated”. For the same compound, the “ISG (Ifi44) expression” value is reported as “inhibited” in the assay on LMTK-1 (WT) cells and “not” in the assay on LMEB-4 (ρ0) cells. Besides, the “mtDNA released during incubation” value in assay [2] is “decreased in a concentration-dependent manner”.
Consider `CO[C@H]1C[C@@H]2CC[C@@H](C)[C@@](O)(O2)C(=O)C(=O)N2CCCC[C@H]2C(=O)O[C@H]([C@H](C)C[C@@H]2CC[C@@H](OCCO)[C@H](OC)C2)CC(=O)[C@H](C)/C=C(\C)[C@@H](O)[C@@H](OC)C(=O)[C@H](C)C[C@H](C)/C=C/C=C/C=C/1C` [everolimus], for which the fimtDNA result in the assay on 143B cells (100 nM everolimus) was “decreased”.
As for `CC1(C)CC(NC(=O)C[P+](c2ccccc2)(c2ccccc2)c2ccccc2)CC(C)(C)N1[O]` [mito-TEMPO], the ISG expression result with EndoG−/− MEFs [1] (Mito-TEMPO (10 μM), 3 days) was “reduced”. Besides, the fimtDNA result with 143B cells (50 nM mito-TEMPO) is recorded as “decreased”. Also, in the assay with EndoG−/− MEFs [3], the mROS entry is given as “reduced”.
As to “VDAC1 N-terminal mutant peptide: VDAC1 N-terminal peptide in which K12, R15, K20 were changed to Ala (MAVPPTYADLGASAADVFTAGYGFGL)”, the “pull-down of mtDNA fragment” value in the assay on mtDNA (120 bp) is “not”.

The values above are taken from patent US20220023381A1, “VDAC INHIBITORS FOR TREATING AUTOIMMUNE DISEASES” (NATIONAL INSTITUTE FOR BIOTECHNOLOGY IN THE NEGEV LTD., priority 2018, published 2022).
